{"source": "patent US20060121102A1", "about": "“Transdermal systems for the delivery of estrogens and progestins” (priority 2004, published 2006)", "assay": "In vitro skin permeation (flux), modified Franz diffusion cells", "type": "in vitro ADME, human", "details": "as permeation enhancer, compared with other enhancers such as lauryl lactate", "procedure": "In vitro skin permeation studies were conducted using modified Franz diffusion cells to determine the delivery of estrogens and progestins from various drug polymer matrices. The release liner was peeled off of the drug matrix layer. The drug matrix layer was then gently pressed onto the stratum corneum of heat separated epidermis from human cadaver skin. This skin membrane with the backing and drug matrix affixed thereto was then mounted between the two half-cells and fastened with a clamp. The receiver compartment was filled with 1% hydroxylpropylcyclodextrin in normal saline solution with 0.01% sodium azide. The temperature was maintained at 32° C. Samples were taken at preset intervals and assayed by HPLC. The flux was calculated from the slope of the cumulative amounts of the drug in the receiver compartment versus time."}
{"smiles": "CC(O)C(=O)O", "note": "(stereo not shown) [lactic acid]", "values": [{"measurement": "enhancing the transdermal flux of norelgestromin", "value": "particularly effective"}]}
